Assay results taken from a compilation of properties of binary mixtures (doi:10.1016/j.molliq.2016.09.077).

Test: xn = mol fraction of the nth substance listed
Details: 100 kPa

CC[n+]1ccn(C)c1.O=S(=O)([N-]S(=O)(=O)C(F)(F)F)C(F)(F)F + CCOC(C)=O
Details | speed of sound [m/s] | viscosity [mPa·s]
298.15 K, x2 = 0 | 1240.2 | 32.49
298.15 K, x2 = 0.0986 | 1232.6 | 25
298.15 K, x2 = 0.1858 | 1225.5 | 20.15
298.15 K, x2 = 0.2977 | 1215.3 | 14.83
298.15 K, x2 = 0.3962 | 1203.4 | 10.88
298.15 K, x2 = 0.5051 | 1189.2 | 7.63
298.15 K, x2 = 0.5961 | 1180.3 | 5.44
298.15 K, x2 = 0.6909 | 1171.1 | 3.77
298.15 K, x2 = 0.7974 | 1158.2 | 2.24
298.15 K, x2 = 0.8979 | 1147.7 | 0.93
303.15 K, x2 = 0 | 1229.3 | 27.68
303.15 K, x2 = 0.0986 | 1221.4 | 21.28
303.15 K, x2 = 0.1858 | 1213.9 | 17.32
303.15 K, x2 = 0.5051 | 1175.9 | 6.47
303.15 K, x2 = 0.6909 | 1155.8 | 3.31
308.15 K, x2 = 0.0986 | 1210.4 | 18.31
308.15 K, x2 = 0.1858 | 1202.6 | 14.96
308.15 K, x2 = 0.3962 | 1178.5 | 8.3
308.15 K, x2 = 0.5051 | 1162.7 | 5.78
308.15 K, x2 = 0.5961 | 1151.7 | 4.15
308.15 K, x2 = 0.6909 | 1139.5 | 2.78
308.15 K, x2 = 0.7974 | 1123.4 | 1.63
308.15 K, x2 = 0.8979 | 1109 | 0.83
313.15 K, x2 = 0 | 1207.9 | 20.16
313.15 K, x2 = 0.0986 | 1199.5 | 15.97
313.15 K, x2 = 0.1858 | 1191.4 | 13.01
313.15 K, x2 = 0.2977 | 1179.8 | 9.91
313.15 K, x2 = 0.5961 | 1137.9 | 3.71
313.15 K, x2 = 0.6909 | 1124.4 | 2.48
313.15 K, x2 = 0.7974 | 1106.4 | 1.47
313.15 K, x2 = 0.8979 | 1089.8 | 0.8
318.15 K, x2 = 0 | 1197.3 | 17.48
318.15 K, x2 = 0.0986 | 1188.6 | 14
318.15 K, x2 = 0.2977 | 1168.3 | 8.8
318.15 K, x2 = 0.5961 | 1123.8 | 3.27
318.15 K, x2 = 0.6909 | 1109.4 | 2.3
318.15 K, x2 = 0.7974 | 1089.2 | 1.29
323.15 K, x2 = 0 | 1187 | 15.34
323.15 K, x2 = 0.0986 | 1178.9 | 12.36
323.15 K, x2 = 0.1858 | 1169.7 | 10.19
323.15 K, x2 = 0.2977 | 1156.8 | 7.87
323.15 K, x2 = 0.3962 | 1142.5 | 5.82
323.15 K, x2 = 0.5051 | 1124 | 3.9
323.15 K, x2 = 0.5961 | 1110 | 2.94
323.15 K, x2 = 0.7974 | 1071.9 | 1.16
323.15 K, x2 = 0.8979 | 1051.6 | 0.7

CCOC(C)=O + CC[n+]1ccn(C)c1.O=S(=O)([N-]S(=O)(=O)C(F)(F)F)C(F)(F)F
x1 = 1
Details | speed of sound [m/s] | viscosity [mPa·s]
298.15 K | 1140.8 | 0.42
308.15 K | 1096 | 0.38
313.15 K | 1073.7 | 0.36
318.15 K | 1051.7 | 0.35
323.15 K | 1029.5 | 0.33

CO + CC[n+]1ccn(C)c1.O=S(=O)([N-]S(=O)(=O)C(F)(F)F)C(F)(F)F
x1 = 1
Details | speed of sound [m/s] | viscosity [mPa·s]
303.15 K | 1086.9 | 0.51
313.15 K | 1054.5 | 0.45
323.15 K | 1022.5 | 0.41

CC[n+]1ccn(C)c1.O=S(=O)([N-]S(=O)(=O)C(F)(F)F)C(F)(F)F + CO
Details | speed of sound [m/s] | viscosity [mPa·s]
298.15 K, x2 = 0 | 1240.2 | 32.49
298.15 K, x2 = 0.0938 | 1236.3 | 26.33
298.15 K, x2 = 0.1965 | 1231.5 | 20.39
298.15 K, x2 = 0.2889 | 1225.3 | 15.83
298.15 K, x2 = 0.4005 | 1217.3 | 11.82
298.15 K, x2 = 0.5088 | 1207.8 | 8.77
298.15 K, x2 = 0.6909 | 1177.9 | 4.64
298.15 K, x2 = 0.7961 | 1159.9 | 2.86
298.15 K, x2 = 0.8978 | 1132.9 | 1.55
303.15 K, x2 = 0 | 1229.3 | 27.68
303.15 K, x2 = 0.0938 | 1225.2 | 22.39
303.15 K, x2 = 0.1965 | 1220.1 | 17.79
303.15 K, x2 = 0.2889 | 1214.2 | 13.73
303.15 K, x2 = 0.4005 | 1206.3 | 10.47
303.15 K, x2 = 0.5088 | 1196.7 | 7.7
303.15 K, x2 = 0.5988 | 1183.4 | 5.82
303.15 K, x2 = 0.6909 | 1166.9 | 4.25
303.15 K, x2 = 0.7961 | 1147.4 | 2.61
303.15 K, x2 = 0.8978 | 1120.1 | 1.43
308.15 K, x2 = 0 | 1218.5 | 23.29
308.15 K, x2 = 0.0938 | 1214.6 | 19.27
308.15 K, x2 = 0.1965 | 1208.9 | 15.16
308.15 K, x2 = 0.2889 | 1203.2 | 12.01
308.15 K, x2 = 0.5088 | 1185.5 | 6.82
308.15 K, x2 = 0.5988 | 1172.4 | 5.22
308.15 K, x2 = 0.6909 | 1154.9 | 3.84
308.15 K, x2 = 0.7961 | 1135.5 | 2.37
313.15 K, x2 = 0 | 1207.9 | 20.16
313.15 K, x2 = 0.0938 | 1203.9 | 16.71
313.15 K, x2 = 0.1965 | 1197.9 | 13.25
313.15 K, x2 = 0.2889 | 1192.3 | 10.57
313.15 K, x2 = 0.5988 | 1161.2 | 4.65
313.15 K, x2 = 0.7961 | 1122.7 | 2.16
313.15 K, x2 = 0.8978 | 1094.6 | 1.22
318.15 K, x2 = 0 | 1197.3 | 17.48
318.15 K, x2 = 0.0938 | 1193.3 | 14.63
318.15 K, x2 = 0.2889 | 1181.6 | 9.38
318.15 K, x2 = 0.4005 | 1173.4 | 7.26
318.15 K, x2 = 0.5088 | 1163.5 | 5.47
318.15 K, x2 = 0.5988 | 1150.2 | 4.22
318.15 K, x2 = 0.6909 | 1131.2 | 3.13
318.15 K, x2 = 0.7961 | 1110.4 | 1.98
318.15 K, x2 = 0.8978 | 1082 | 1.13
323.15 K, x2 = 0 | 1187 | 15.34
323.15 K, x2 = 0.0938 | 1182.8 | 12.94
323.15 K, x2 = 0.1965 | 1176.2 | 10.42
323.15 K, x2 = 0.2889 | 1170.9 | 8.38
323.15 K, x2 = 0.4005 | 1162.8 | 6.56
323.15 K, x2 = 0.5088 | 1152.6 | 4.94
323.15 K, x2 = 0.5988 | 1139.3 | 3.86
323.15 K, x2 = 0.6909 | 1119.6 | 2.87
323.15 K, x2 = 0.8978 | 1069.4 | 1.05
